Calls of active or inactive are those of the source. The rule behind the calls is not given here.

In the assay the target is Perilipin-5 (Homo sapiens) + 1-acylglycerol-3-phosphate O-acyltransferase ABHD5 (Homo sapiens) (UniProt Q00G26+Q8WTS1). The experiment in a line: ABHD5-PLIN5 interaction inhibitors, dose response, biochemical, luminescence (AID 651677).
Perilipin-5 (Homo sapiens) + 1-acylglycerol-3-phosphate O-acyltransferase ABHD5 (Homo sapiens), sequence (Q00G26 whole entry, looked up): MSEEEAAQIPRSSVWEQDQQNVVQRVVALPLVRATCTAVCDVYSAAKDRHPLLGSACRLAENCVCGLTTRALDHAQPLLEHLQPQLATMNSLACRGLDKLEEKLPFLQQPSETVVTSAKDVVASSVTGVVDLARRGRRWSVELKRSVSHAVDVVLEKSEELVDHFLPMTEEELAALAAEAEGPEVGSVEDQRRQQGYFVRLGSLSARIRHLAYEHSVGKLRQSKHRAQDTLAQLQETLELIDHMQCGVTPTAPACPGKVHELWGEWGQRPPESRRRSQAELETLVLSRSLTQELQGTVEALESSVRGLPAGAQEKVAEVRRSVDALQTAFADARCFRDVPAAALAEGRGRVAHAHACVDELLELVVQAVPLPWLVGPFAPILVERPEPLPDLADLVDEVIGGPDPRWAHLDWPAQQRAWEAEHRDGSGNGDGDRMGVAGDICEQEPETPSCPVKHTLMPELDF
Perilipin-5 (Homo sapiens) + 1-acylglycerol-3-phosphate O-acyltransferase ABHD5 (Homo sapiens), sequence (Q8WTS1 whole entry, looked up): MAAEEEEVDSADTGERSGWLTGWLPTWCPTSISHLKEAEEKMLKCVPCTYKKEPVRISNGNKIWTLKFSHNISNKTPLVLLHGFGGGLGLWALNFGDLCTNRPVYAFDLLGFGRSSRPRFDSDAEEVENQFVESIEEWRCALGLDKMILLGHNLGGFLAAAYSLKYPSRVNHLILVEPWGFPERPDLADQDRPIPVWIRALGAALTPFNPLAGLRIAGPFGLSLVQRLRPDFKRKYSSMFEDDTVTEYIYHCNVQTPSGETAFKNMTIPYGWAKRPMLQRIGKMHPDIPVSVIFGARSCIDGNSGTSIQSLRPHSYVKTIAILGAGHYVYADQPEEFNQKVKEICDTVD
For `CC(C)(C)NC(=O)C(c1cccc2ccccc12)n1c(=O)c(-c2ccco2)nc2ccccc21` (stereo not drawn), the IC50 is 2390 nM.
The result for `CC(=O)Oc1c(Cl)cc(N(C(C)=O)S(=O)(=O)c2ccccc2)c2ccccc12` reads 6550 nM; that for `CCN(CC)CCOCCOC(=O)C1(c2ccccc2)CCCC1`, 2030 nM; that for `CC(=O)OCC1=C(C(=O)O)N2C(=O)C(NC(=O)CCn3nc(C(F)(F)F)c(Br)c3C3CC3)C2SC1` (stereo not drawn), 5240 nM.
The result for `CN(C)CCCN(C(=O)CCc1ccccc1)c1nc2ccc(Cl)cc2s1` reads 7370 nM; that for `NC(=O)CCN1CCN(CCOC2Cc3cc(Cl)ccc3Sc3ccccc32)CC1` (stereo not drawn), “inactive”.
Under `COc1ccc(C(C(=O)Nc2ccc3c(c2)OCCO3)n2c(=O)c(-c3ccco3)nc3ccccc32)cc1` (stereo not drawn) stands 7560 nM.
`CCC(=O)Nc1cccc(C(=O)/C=C/c2ccccc2)c1`: the IC50 is 2710 nM.
The result for `COC(=O)c1cc(=O)n(-c2ccc(F)cc2)c(=Nc2ccc(F)cc2)s1` reads 3090 nM; that for `CCC1(C)N=C(c2ccc3c(c2)OCO3)CC(c2ccccc2O)N1` (stereo not drawn), 1570 nM.
Under `CCOc1cc(/C=C2\CCC/C(=C\c3cc(Cl)c(O)c(OCC)c3)C2=O)cc(Cl)c1O` stands 4160 nM; under `COc1cc2c(cc1OC)C(C)N(CCc1ccc(Cl)cc1)CC2` (stereo not drawn), “inactive”.
Regarding `COc1cc(/C=C/C(=O)c2ccc(Cl)s2)cc(OC)c1O`, the IC50 was 4480 nM.
Turning to `Cc1cc(C)c2nc(NNC(=O)c3ccc(S(=O)(=O)N4CCCC(C)C4)cc3)sc2c1` (stereo not drawn), the half-inhibitory concentration (IC50) is 5270 nM.
Under `CC(C)(C)NC(=O)C(c1cc2ccccc2o1)n1c(=O)c(-c2ccco2)nc2ccccc21` (stereo not drawn) stands 1550 nM; under `CCCCn1c(SCC(=O)NCc2ccco2)nnc1-c1ccoc1C`, 4820 nM.
The result for `O=C1/C(=C/c2cccnc2)CC/C1=C\c1cccnc1` reads 3310 nM; that for `Cc1ccc2nc3cc([N+](=O)[O-])cc([N+](=O)[O-])c3cc2c1`, 600 nM; that for `CC(C)(C)NC(=O)C(c1ccc(-c2ccccc2)cc1)n1c(=O)c(-c2ccco2)nc2ccccc21` (stereo not drawn), 1290 nM.
Under `O=C(NC1CCCCC1)C(c1ccccc1F)n1c(=O)c(-c2ccco2)nc2ccccc21` (stereo not drawn) stands 1260 nM; under `O=C(NCc1ccccc1)C(c1ccccc1)n1c(=O)c(-c2ccco2)nc2ccccc21` (stereo not drawn), 2800 nM; under `CC(O)CC(=O)OC[C@]12CC[C@H]3[C@@](C)(CC[C@H]4C(C)(C)CCC[C@]34C)[C@@H]1CC(C1=CC(=O)OC1O)O2` (stereo partly drawn), 857 nM.
For `Cc1nc(-c2ccccc2)sc1C(=O)/C=C/c1ccccc1`, the IC50 is 2790 nM.
The result for `CC(=O)Oc1c(Br)cc(N(C(C)=O)S(=O)(=O)c2ccccc2)c2ccccc12` reads 6410 nM.
The result for `COc1ccc(C(C(=O)NC(C)(C)C)n2c(=O)c(-c3ccco3)nc3ccccc32)cc1` (stereo not drawn) reads 1690 nM.
Under `O=C(NCc1ccccc1)C(c1ccc(C(F)(F)F)cc1)n1c(=O)c(-c2ccco2)nc2ccccc21` (stereo not drawn) stands 1310 nM.
Regarding `O=C1NC(=S)NC(=O)C12C(c1ccccc1)NC(=S)NC2c1ccccc1` (stereo not drawn), the IC50 was 4390 nM.
Under `CCCCNC(=O)Nc1ccc2c(c1)N(C)C(=O)c1ccccc1S2` stands 4080 nM; under `CC1Sc2ccc(S(=O)(=O)N3CCC(C(=O)NCc4ccc(Cl)cc4)CC3)cc2NC1=O` (stereo not drawn), “inactive”; under `Cc1ccc2sc(N(CCCN(C)C)C(=O)CN3C(=O)c4ccccc4C3=O)nc2c1C`, “inactive”.
Under `CC(C)(C)NC(=O)C(C1CC1)n1c(=O)c(-c2ccco2)nc2ccccc21` (stereo not drawn) stands 2740 nM; under `CCCc1nnc(NC(=O)c2nc(S(=O)(=O)Cc3cccc(C)c3)ncc2Cl)s1`, 3410 nM.
Under `Cc1ccc(/C(O)=C2/C(=O)C(=O)OC2c2ccc(Cl)cc2)cc1` (stereo not drawn) stands 9720 nM; under `CSc1nnc(NC(=O)c2nc(S(=O)(=O)Cc3ccccc3F)ncc2Cl)s1`, 2770 nM; under `C#CCN(C[C@@H]1[C@@H](OC(=O)Nc2cccs2)[C@@H](OC(=O)Nc2cccs2)Cn2c(=O)ccc(=O)n21)S(=O)(=O)c1ccc(C)cc1`, 1780 nM.
Regarding `CN(C)c1ccc(Cc2cc3c(O)ccc(O)c3cc(Cc3ccc(N(C)C)cc3)c2=O)cc1`, the IC50 was 1990 nM.
As for `CC(=O)Nc1ccc(S(=O)(=O)N2c3ccc(F)cc3CCC2C)cc1` (stereo not drawn), the IC50 result was “inactive”.
The result for `CCc1nnc(NC(=O)c2nc(S(=O)(=O)Cc3cccc(C)c3)ncc2Cl)s1` reads 3330 nM; that for `O=C(COc1ccccc1Cl)Nc1ccc(N2CCCC2)cc1`, > 39900 nM (inactive).
The result for `O=C(/C(=C/c1ccccc1)n1cncn1)c1ccc(Cl)cc1Cl` reads 2490 nM; that for `O=C(Nc1ccc2c(c1)OCCO2)C(c1ccccc1F)n1c(=O)c(-c2ccco2)nc2ccccc21` (stereo not drawn), “inactive”.
Under `O=c1[nH]c(C2CCN(S(=O)(=O)c3ccc(F)cc3)CC2)nc2c1nnn2Cc1ccc2c(c1)OCCO2` stands “inactive”; under `O=S(=O)(NC1=NCCCCC1)c1ccc2sc(NS(=O)(=O)c3ccc4ccccc4c3)nc2c1`, “inactive”; under `O=C1NC(=O)N(c2ccccc2F)C(=O)/C1=C/c1ccc(Oc2ccc([N+](=O)[O-])cn2)cc1`, 1470 nM.
`C=C1C(=O)O[C@H]2C[C@H]1[C@@H](OC(C)=O)C/C(C)=C/CC/C(C)=C\CC[C@]2(C)O`: the 50% inhibitory concentration (IC50) is 1910 nM.
The result for `CSc1nnc(NC(=O)c2nc(S(=O)(=O)Cc3ccccc3)ncc2Cl)s1` reads 3830 nM; that for `COC(=O)c1ccc(Cn2cc(/C=C\[N+](=O)[O-])c3ccccc32)o1`, 6260 nM; that for `O=C(NCc1ccccc1)C(c1ccccc1F)n1c(=O)c(-c2ccco2)nc2ccccc21` (stereo not drawn), 2270 nM.
Regarding `O=CC1=C(c2ccccc2)Oc2ccccc2O1`, the 50% inhibitory concentration (IC50) was 3520 nM.
The result for `CCN1C/C(=C/c2ccc(OC)c(O)c2)C(=O)/C(=C/c2ccc(OC)c(O)c2)C1` reads 5660 nM; that for `CCOC(=O)C1CCCN(C(=O)c2cc(Nc3ccc(OC)cc3)nc3ccccc23)C1` (stereo not drawn), “inactive”.
Under `CC(=O)Nc1ccc(OCc2cn(CC(=O)c3ccc(O)cc3)nn2)cc1` stands 2320 nM; under `COc1cc(OC)cc(C(=O)NC(=S)N(Cc2ccccc2)C(C)C)c1`, “inactive”.
The result for `Cc1cccc(C)c1OCc1cn(CC(=O)c2ccc(O)cc2)nn1` reads 2830 nM; that for `O=C(C[n+]1cccc(CNC(=O)c2ccc(OC(F)F)cc2)c1)Nc1cccc(C(F)(F)F)c1`, “inactive”.
For the compound `COc1ccccc1-c1cc(C(=O)NC2CCN(C)CC2)c2ccc(Cl)c(C)c2n1`, the 50% inhibitory concentration (IC50) was 7180 nM.
Under `CC(C)(C)NC(=O)C(c1ccc(C#N)cc1)n1c(=O)c(-c2ccco2)nc2ccccc21` (stereo not drawn) stands 1850 nM.
The result for `CN(C)CCOC1(Cc2ccc(F)cc2)CCC(C(C)(C)C)CC1` (stereo not drawn) reads 7330 nM.
The result for `Oc1c(C(c2ccccc2)N2CCCCC2)ccc2ccccc12` (stereo not drawn) reads 845 nM; that for `CC(C)c1ccc(N2C=Nc3ccc(C(C)C)cc3C2)cc1`, “inactive”; that for `COc1ccc(-c2cc(N)n(S(=O)(=O)c3c(F)c(F)c(F)c(F)c3F)n2)cc1OC`, 6830 nM.
Turning to `CN(C)CCOc1ccc(/C(=C(/CCCl)c2ccccc2)c2ccccc2)cc1`, the half-maximal inhibitory concentration (IC50) was 1380 nM.
Under `COc1ccc(NC(=O)C(c2ccnc3ccccc23)n2c(=O)c(-c3ccco3)nc3ccccc32)cc1` (stereo not drawn) stands 8170 nM.

Source of the values: PubChem BioAssay AID651677 (The Scripps Research Institute Molecular Screening Center, 2012).
